Read-outs that look alike come from different tables or passages of the source.
Assays:
CREBBP (1084-1701) = target: T1, CREBBP (1084-1701) (Homo sapiens, UniProt Q92793); assay: Biochemical assay for CREBBP (1084-1701), SAMDI; details: SAMDI, read-out: CREBBP Biochemistry IC50
T1 construct: measured in the following biochemical assay using CREBBP (1084-1701); purchased
Outline: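 CREBBP (1084-1701) preincubated with compound 30 min at RT, then substrate mix (biotin-H3 11-25 K14R/K23R peptide, acetyl-CoA) added for 30 min at RT. Reaction stopped with formic acid, neutralised with sodium bicarbonate. Peptide acetylation read by SAMDI mass spectrometry to derive IC50.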

647V cells = assay: High throughput proliferation (HTP) assay; assay type: cell-based; details: high throughput proliferation, 647V cells, read-out: CREBBP HTP IC50
Outline: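 Exponentially growing 647V cells in DMEM with 15% FBS were treated in triplicate with increasing compound concentrations at 37° C, 5% CO2. Viable cell number was read by CellTiter-Glo luminescence on day 7; IC50 in micromolar.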

[1] = test system: H3K18Ac in HB-CLS-2 cells; assay: H3K18AC in-cell western (ICW) assay; assay type: cell-based; details: H3K18Ac in-cell western, HB-CLS-2 cells; read-out: CREBBP ICW IC50
Outline: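 HB-CLS-2 cells seeded 16–24 hours before 2 hr compound treatment at 37° C, 5% CO2, then methanol-fixed. H3K18Ac detected with rabbit monoclonal primary (overnight, 4° C) and 800CW anti-rabbit secondary; DRAQ5 stained DNA. Plates imaged at 700 and 800 nm for integrated intensity; IC50 in μM.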

EP300 (P300(1048-1664)) = target: T2, EP300 (P300(1048-1664)) (Homo sapiens, UniProt Q09472); assay: Biochemical assay for EP300, SAMDI; details: EP300, SAMDI; read-out: EP300 Biochemistry IC50
T2 construct: P300(1048-1664)
T2 sequence (Q09472 1048-1664): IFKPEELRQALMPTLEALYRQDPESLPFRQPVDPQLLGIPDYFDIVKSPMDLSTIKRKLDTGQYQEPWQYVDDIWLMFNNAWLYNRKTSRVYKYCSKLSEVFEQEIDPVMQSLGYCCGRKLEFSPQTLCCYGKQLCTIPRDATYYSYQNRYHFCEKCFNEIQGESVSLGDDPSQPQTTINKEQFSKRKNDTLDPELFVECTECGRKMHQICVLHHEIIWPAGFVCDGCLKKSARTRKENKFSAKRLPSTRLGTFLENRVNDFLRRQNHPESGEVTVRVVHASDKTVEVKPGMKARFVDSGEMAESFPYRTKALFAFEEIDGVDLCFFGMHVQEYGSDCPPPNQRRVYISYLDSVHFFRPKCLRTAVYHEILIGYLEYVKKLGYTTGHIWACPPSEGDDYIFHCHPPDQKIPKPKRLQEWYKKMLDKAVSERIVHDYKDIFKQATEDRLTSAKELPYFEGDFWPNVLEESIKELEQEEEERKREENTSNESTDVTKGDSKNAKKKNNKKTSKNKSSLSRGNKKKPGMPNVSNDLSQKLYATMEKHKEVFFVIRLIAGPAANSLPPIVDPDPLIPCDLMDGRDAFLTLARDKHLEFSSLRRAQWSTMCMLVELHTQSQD
Description: The following example describes materials and methods relating to a biochemical assay for EP300. IC50 values (micromolar (μM)) are summarized in Table 1, Table 2, and Table 3 under the column labeled: “EP300 Biochemistry IC50 (micromolar).”

T1 sequence (Q92793 1084-1701): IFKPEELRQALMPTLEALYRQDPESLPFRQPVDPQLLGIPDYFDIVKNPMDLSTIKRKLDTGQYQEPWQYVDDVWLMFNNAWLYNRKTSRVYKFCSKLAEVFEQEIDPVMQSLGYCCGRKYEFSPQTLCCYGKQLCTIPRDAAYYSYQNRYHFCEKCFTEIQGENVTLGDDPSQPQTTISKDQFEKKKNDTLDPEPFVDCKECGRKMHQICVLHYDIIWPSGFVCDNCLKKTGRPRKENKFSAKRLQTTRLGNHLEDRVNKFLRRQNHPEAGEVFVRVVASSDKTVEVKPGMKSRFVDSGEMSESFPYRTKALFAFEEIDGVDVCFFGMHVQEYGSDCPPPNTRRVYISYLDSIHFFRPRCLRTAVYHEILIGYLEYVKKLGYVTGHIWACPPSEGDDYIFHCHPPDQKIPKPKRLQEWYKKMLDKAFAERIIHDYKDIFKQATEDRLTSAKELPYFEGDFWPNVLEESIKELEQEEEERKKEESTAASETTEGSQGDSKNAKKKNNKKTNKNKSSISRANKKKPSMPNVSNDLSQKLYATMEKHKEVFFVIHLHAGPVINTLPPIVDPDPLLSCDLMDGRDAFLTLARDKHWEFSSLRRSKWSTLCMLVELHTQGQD

| SMILES | IC50 (CREBBP (1084-1701)) | IC50 [1] | IC50 (EP300 (P300(1048-1664))) | IC50 (647V cells; Homo sapiens, 647-V) | IC50 (647V cells) |
| --- | --- | --- | --- | --- | --- |
| CCn1ncc(CN(C)C(=O)c2cc(-c3ccc4c[nH]nc4n3)nc3ccc(Cl)cc23)c1C [Compound 386] | 15 nM | 200 nM | 10 nM | 310 nM | – |
| CCn1ncc(CN(C)C(=O)c2nc(-c3ccc(NC4CCOCC4)c(C)c3)nc3ccc(Cl)cc23)c1C [Compound 387] | 16 nM | 120 nM | 7.5 nM | 88 nM | – |
| CCn1ncc(CN(C)C(=O)c2cc(-c3ccc(NCCNC)c(C)n3)nc3ccc(Cl)cc23)c1C [Compound 388] | 34 nM | 230 nM | 11 nM | 66 nM | – |
| CCn1ncc(CN(C)C(=O)c2cc(-c3ccc(NC4CNC4)c(C)n3)nc3ccc(Cl)cc23)c1C [Compound 389] | 17 nM | 82 nM | 7.4 nM | 73 nM | – |
| CCn1ncc(CN(C)C(=O)c2nc(-c3cc(Cl)cc(C(=O)NC)c3)nc3ccc(Cl)cc23)c1C [Compound 392] | 50000 nM | 20000 nM | 50000 nM | 20000 nM | – |
| CCn1ncc(CN(C)C(=O)c2nc(-c3cc(C(=O)Nc4ccccc4)n(C)n3)nc3ccc(Cl)cc23)c1C [Compound 396] | 50000 nM | 20000 nM | 35000 nM | 8400 nM | – |
| CCn1ncc(CN(C)C(=O)c2cc(-c3cc(NC(=O)CNC)cc(C)n3)nc3ccc(Cl)cc23)c1C [Compound 397] | 43 nM | 130 nM | 42 nM | 160 nM | – |
| CCn1ncc(CN(C)C(=O)c2nc(-c3cc(CNC)nn3C)nc3ccc(Cl)cc23)c1C [Compound 403] | 50000 nM | 12000 nM | 22000 nM | 10000 nM | – |
| CCn1ncc(CN(C)C(=O)c2nc(-c3cc(C#N)n(C)n3)nc3ccc(Cl)cc23)c1C [Compound 406] | 50000 nM | 20000 nM | 50000 nM | 20000 nM | – |
| CCn1ncc(CN(C)C(=O)c2cc(-c3ccc(OCCNC)c(Cl)c3)nc3ccc(P(C)(C)=O)cc23)c1C [Compound 407] | 2100 nM | 18000 nM | 700 nM | – | 7400 nM |
| CCn1ncc(CN(C)C(=O)c2nc(-c3cc(C)cc(NCC(=O)NC)c3)nc3ccc(Cl)cc23)c1C [Compound 408] | 430 nM | 1100 nM | 950 nM | 890 nM | – |
| CCn1ncc(CN(C)C(=O)c2cc(-c3cc(NCCNC)cc(C)n3)nc3ccc(Cl)cc23)c1C [Compound 409] | 74 nM | 230 nM | 23 nM | 54 nM | – |

Continued, in another order:

| IC50 (CREBBP (1084-1701)) | IC50 [1] | IC50 (EP300 (P300(1048-1664))) | SMILES | IC50 (647V cells; Homo sapiens, 647-V) | IC50 (647V cells) |
| --- | --- | --- | --- | --- | --- |
| 33 nM | 650 nM | 140 nM | CCn1ncc(CN(C)C(=O)c2nc(-c3cc(OC)c4cn[nH]c4c3)nc3ccc(Cl)cc23)c1C [Compound 390] | 680 nM | – |
| 8500 nM | 3200 nM | 4100 nM | CCn1ncc(CN(C)C(=O)c2nc(-c3cc(C(=O)NC)nn3C)nc3ccc(Cl)cc23)c1C [Compound 391] | 3100 nM | – |
| 2000 nM | 5400 nM | 3800 nM | CCn1ncc(CN(C)C(=O)c2nc(-c3cc(Cl)cc(CNC4CCNCC4)c3)nc3ccc(Cl)cc23)c1C [Compound 394] | 4200 nM | – |
| 37 nM | 270 nM | 37 nM | CCn1ncc(CN(C)C(=O)c2cc(-c3ccc(NCC(=O)NC)c(C)n3)nc3ccc(Cl)cc23)c1C [Compound 395] | 410 nM | – |
| 24000 nM | 8200 nM | 22000 nM | CCn1ncc(CN(C)C(=O)c2nc(-c3cc(C)nc(CNC)c3)nc3ccc(Cl)cc23)c1C [Compound 398] | 4800 nM | – |
| 29 nM | 110 nM | 13 nM | CCn1ncc(CN(C)C(=O)c2cc(-c3cc4[nH]cnc4cn3)nc3ccc(Cl)cc23)c1C [Compound 400] | 110 nM | – |
| 56 nM | 120 nM | 18 nM | CCn1ncc(CN(C)C(=O)c2cc(-c3cc4[nH]ncc4c(C)n3)nc3ccc(Cl)cc23)c1C [Compound 401] | 130 nM | – |
| 62 nM | 350 nM | 300 nM | CCn1ncc(CN(C)C(=O)c2nc(-c3ccc4c(N)[nH]nc4c3C)nc3ccc(Cl)cc23)c1C [Compound 402] | 310 nM | – |
| 2.5 nM | 170 nM | 23 nM | CCn1ncc(CN(C)C(=O)c2cc(-c3ccc(NC)c(C)n3)nc3ccc(Cl)cc23)c1C [Compound 404] | 120 nM | – |
| 5700 nM | 1600 nM | 2700 nM | CCn1ncc(CN(C)C(=O)c2nc(-n3cc(CCN(C)C)cn3)nc3ccc(Cl)cc23)c1C [Compound 405] | 1700 nM | – |
| 5500 nM | 6100 nM | 1400 nM | CCn1ncc(CN(C)C(=O)c2cc(-c3cc(C)c(OCCNC)cn3)nc3ccc(Cl)cc23)c1C [Compound 410] | 2800 nM | – |
| 21000 nM | 6400 nM | 7400 nM | CCn1ncc(CN(C)C(=O)c2cc(-c3cnc(OCCNC)cn3)nc3ccc(Cl)cc23)c1C [Compound 413] | 5000 nM | – |
| 30000 nM | 20000 nM | 44000 nM | CCn1ncc(CN(C)C(=O)c2nc(-c3ccc(OCCNC)nn3)nc3ccc(Cl)cc23)c1C [Compound 414] | 20000 nM | – |
| 32 nM | 240 nM | 23 nM | CCc1cc(-c2nc(C(=O)N(C)Cc3cnn(CC)c3C)c3cc(Cl)ccc3n2)ccc1NC1CCOCC1 [Compound 415] | 240 nM | – |
| 22000 nM | 4900 nM | 16000 nM | CCn1ncc(CN(C)C(=O)c2cc(-c3ccc(N(C)CCNC)c(C)n3)nc3ccc(Cl)cc23)c1C [Compound 417] | 3100 nM | – |

— patent US20220144812A1, “QUINOLINE DERIVATIVES AND THEIR USE FOR THE TREATMENT OF CANCER” (Epizyme, Inc., priority 2019, published 2022)
